Test results published in patent publication US7722863B2, “Use of granzyme b as an hsp70/hsp70 peptide dependent inducer of apoptosis in tumor cells” (Multimmune GmbH, priority 2002, dated 2010).
“And” between values parts separate entries of the source, which are not always exact repeats. Equal entries are not always repeated.

Legend:
Colo− tumor cells = test: DAPI staining of nuclear DNA fragmentation; type: cell-based, human; details: 24 h, camptothecin 4 μg/ml or granzyme B 6 ng/ml
Experimental: (§1) DAPI-staining: Methanol/aceton fixed cells (0.1×10^6 cells/100 μl) were incubated with 0.5 μg/μl 4,6-diamino-2-phenylindole (DAPI) in PBS/glycerol (3:1), for 15 min in the dark. Following washing in PBS the cells were mounted with Fluorescent Mounting Medium (Dako, Glostrup, Denmark) and than analysed for fluorescence using a Zeiss model Axioscop 2 scanning microscope (Zeiss Jena, Germany) equipped with a 40× objective and standard filters. Apoptosis was visualized with DAPI-staining in 50 cells, each. Images were treated by multiplicative shading correction using software Axiovision (Zeiss Vision Jena, Germany).

CX− tumor cells [1] = test: DAPI staining of nuclear DNA fragmentation; type: cell-based, human; details: 24 h, camptothecin 4 μg/ml or granzyme B 6 ng/ml
Experimental: as §1

Colo+ tumor cells = test: DAPI staining of nuclear DNA fragmentation; type: cell-based, human; details: 24 h, camptothecin 4 μg/ml or granzyme B 6 ng/ml
Experimental: as §1

CX+ tumor cells [2] = test: DAPI staining of nuclear DNA fragmentation; type: cell-based, human; details: 24 h, camptothecin 4 μg/ml or granzyme B 6 ng/ml
Experimental: as §1

[3] = biological target: T1, recombinant human Hsp70-protein (Homo sapiens, UniProt P0DMV8); test: Affinity chromatography of YT cell lysate, Western blot of eluates; type: binding; details: Western blot with mAb 2C5, fraction F3
T1 construct: purchased Stressgen
Experimental: (§2) Bovine serum albumine (BSA, 1 mg/ml, Sigma-Aldrich, Steinheim, Germany), 1 mg/ml lyophylized, recombinant human Hsp70-protein (Stressgen, British Columbia, Canada) or 2 mg/mi Hsp70-peptide TKD (TKDNNLLGRFELSG (SEO ID NO:1), aa450-463, Bachem, Bubendorf, Switzerland) were incubated with equilibrated AminoLink agarose beads (Pierce, Rockford, USA) in 2 ml for 6 h, together with the reductant NaCNBH3. Binding capacity of BSA, Hsp70-protein and Hsp70-peptide TKD was greater 95%. Following removal of uncoupled material by extensive washing with Tris-buffer and quenching of non-reactive groups, cell lysates were administered to the BSA, Hsp70-protein and Hsp70-peptide TKD conjugated columns for 1 h.
(§3) After washing with 10 column volumes of 20 mM Tris buffer, bound proteins were eluted with 3 M sodium chloride in 20 mM Tris buffer, in 5 fractions. Each fraction was subjected to a 10% SDS-PAGE and blotted to PVDF membranes.
(§4) Following blocking in skim-milk (0.1%) and incubation with mAb directed against granzyme B 2C5 (IgG2a, Becton Dickinson, Heidelberg, Germany), at 4° C., for 5 h, Western blots were washed and incubated with a secondary mouse anti-IgG HRP Ab (Dianova, Hamburg, Germany), for 1 h. Proteins were detected using the ECL kit (Amersham Bioscience) for 5 sec. […]

Hsp70-peptide TKD = biological target: T2, Hsp70-peptide TKD (Homo sapiens, UniProt P0DMV8); test: as above; type: binding; details: Western blot with mAb 2C5, fraction F3
T2 construct: Hsp70-peptide TKD (TKDNNLLGRFELSG (SEO ID NO:1), aa450-463, Bachem, Bubendorf, Switzerland); purchased Bachem
Experimental: as §2, §3, §4

CX− tumor cells [4] = test: Cytochrome c release, quantitative immunoassay; type: cell-based, human; details: camptothecin 4 μg/ml or granzyme B 6 ng/ml, 24 h
Experimental: (§5) Cytochrome c release: Cytochrome c release was determined using a quantitative immunoassay; (DCDCO, R&D Systems, Wiesbaden, Germany). Briefly, either untreated, camptothecin (4 μg/ml) or granzyme B (6 ng/ml) treated CX+ and CX− cells (1.5×10^6/ml) were washed in PBS and treated with lysis buffer for 1 h at room temperature. Following centrifugation at 1,000 g for 15 min supernatants were removed and 200 μl of a 1:100, 1:250, and a 1:500 dilution was used for a sandwich ELISA. Following incubation with substrate solution in the dark for 30 min the reaction was stopped. The optical density of each well was determined on an ELISA reader at 450 nm. The amount of cytochrome c was determined according to a calibration curve.
(§6) As an additional test for apoptotic cell death, cytochrome c release was measured following incubation of CX+ and CX− cells with granzyme B for 24 h. As summarized in Table I, following incubation with granzyme B (6 ng/ml) for 24 h, cytochrome c concentration was elevated from 0.382 mg/ml to 0.690 mg/ml (1.8-fold) in CX+ cells. […] It was propose that the trigger of apoptosis by granzyme B is mediated via the extracellular exposed Hsp70 epitope TKD.

CX+ tumor cells [5] = test: Cytochrome c release, quantitative immunoassay; type: cell-based, human; details: camptothecin 4 μg/ml or granzyme B 6 ng/ml, 24 h
Experimental: as §5, §6

T1 sequence (P0DMV8 whole entry): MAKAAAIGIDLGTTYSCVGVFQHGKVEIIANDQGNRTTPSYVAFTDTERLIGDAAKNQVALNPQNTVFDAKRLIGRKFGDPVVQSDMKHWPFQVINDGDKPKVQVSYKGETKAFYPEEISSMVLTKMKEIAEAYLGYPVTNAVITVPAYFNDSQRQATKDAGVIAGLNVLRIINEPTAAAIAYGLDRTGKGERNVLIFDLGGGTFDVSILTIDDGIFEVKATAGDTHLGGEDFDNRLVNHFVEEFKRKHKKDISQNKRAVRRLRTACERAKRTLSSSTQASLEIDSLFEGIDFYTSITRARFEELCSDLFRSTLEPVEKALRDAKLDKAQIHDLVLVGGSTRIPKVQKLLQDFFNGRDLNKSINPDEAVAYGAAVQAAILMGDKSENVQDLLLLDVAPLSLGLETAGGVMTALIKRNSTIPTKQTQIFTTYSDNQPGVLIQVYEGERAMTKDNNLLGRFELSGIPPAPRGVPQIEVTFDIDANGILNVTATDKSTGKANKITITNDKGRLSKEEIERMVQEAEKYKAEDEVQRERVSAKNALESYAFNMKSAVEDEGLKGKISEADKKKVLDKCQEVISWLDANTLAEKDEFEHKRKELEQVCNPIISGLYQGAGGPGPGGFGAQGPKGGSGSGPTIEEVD

## granzyme B
Colo− tumor cells
  nuclear DNA fragmentation (DAPI): no DNA fragmentation was observed
CX− tumor cells [1]
  nuclear DNA fragmentation (DAPI): no DNA fragmentation was observed
Colo+ tumor cells
  nuclear DNA fragmentation (DAPI): DNA fragmentation was detected
CX+ tumor cells [2]
  nuclear DNA fragmentation (DAPI): DNA fragmentation was detected
[3]
  granzyme B in YT cell eluates from Hsp70-protein column: dominant 32 kDa granzyme B protein band
Hsp70-peptide TKD
  granzyme B in YT cell eluates from Hsp70-peptide (TKD) column: dominant 32 kDa granzyme B protein band
CX− tumor cells [4]; control 1.0
  cytochrome c fold increase: 0.9 fold
CX− tumor cells [4]; mean of 4 experiments ± S.E., control 0.452 ± 0.02
  cytochrome c: 0.425 mg/mL and 0.425 ± 0.075 mg/mL
CX+ tumor cells [5]; control 1.0
  cytochrome c fold increase: 1.8 fold
CX+ tumor cells [5]; mean of 4 experiments ± S.E., control 0.382 ± 0.02
  cytochrome c: 0.690 mg/mL and 0.690 ± 0.08 mg/mL
